According to ChEMBL document CHEMBL1122177, “Mechanism of action of 5-nitro-2'-deoxyuridine” (J Med Chem, 1982):

Columns and labels:
Type in all cases: functional, cell-based
Details in all cases: Mus musculus
L1210 [1] = test: Effective concentration for growth inhibition of L1210 cells in culture in the presence of 10 uM of dThd
L1210 [2] = test: Effective concentration for growth inhibition of L1210 cells in culture in the presence of 10 uM of dUrd
L1210 [3] = test: Effective concentration to inhibit growth of L1210 cells in culture
S49 [4] = test: Effective concentration for growth inhibition of S49 cells in culture in the presence of 10 uM of dUrd
S49 [5] = test: Effective concentration to inhibit growth of S49 cells in culture

- EC50 (L1210 [1]): > 3000 nM
- EC50 (L1210 [2]): 120 nM
- EC50 (L1210 [3]): 33 nM
SMILES: O=c1[nH]c(=O)n([C@H]2C[C@H](O)[C@@H](CO)O2)cc1[N+](=O)[O-]
- EC50 (S49 [4]): 60 nM
- EC50 (S49 [5]): 30 nM
